Results reported in US7250410B2, “Cyclic nucleotide phosphodiesterase inhibitors, preparation and uses thereof” (Via Pharmaceuticals, Inc., priority 2001, dated 2007).
Several values for one entry are separate records, joined by “and”; a condition that tells them apart may be missing. Equal entries are not always repeated.

Legend:
PDE3 = target: T1, PDE3 (Bos taurus, UniProt A0A3Q1M1E8); assay: Selectivity: inhibition of PDE3, radioenzymatic phosphodiesterase assay; assay type: biochemical, bovine; details: read-out: PDE3 percentage inhibition at 10 μM
T1 sequence (A0A3Q1M1E8 1-1126): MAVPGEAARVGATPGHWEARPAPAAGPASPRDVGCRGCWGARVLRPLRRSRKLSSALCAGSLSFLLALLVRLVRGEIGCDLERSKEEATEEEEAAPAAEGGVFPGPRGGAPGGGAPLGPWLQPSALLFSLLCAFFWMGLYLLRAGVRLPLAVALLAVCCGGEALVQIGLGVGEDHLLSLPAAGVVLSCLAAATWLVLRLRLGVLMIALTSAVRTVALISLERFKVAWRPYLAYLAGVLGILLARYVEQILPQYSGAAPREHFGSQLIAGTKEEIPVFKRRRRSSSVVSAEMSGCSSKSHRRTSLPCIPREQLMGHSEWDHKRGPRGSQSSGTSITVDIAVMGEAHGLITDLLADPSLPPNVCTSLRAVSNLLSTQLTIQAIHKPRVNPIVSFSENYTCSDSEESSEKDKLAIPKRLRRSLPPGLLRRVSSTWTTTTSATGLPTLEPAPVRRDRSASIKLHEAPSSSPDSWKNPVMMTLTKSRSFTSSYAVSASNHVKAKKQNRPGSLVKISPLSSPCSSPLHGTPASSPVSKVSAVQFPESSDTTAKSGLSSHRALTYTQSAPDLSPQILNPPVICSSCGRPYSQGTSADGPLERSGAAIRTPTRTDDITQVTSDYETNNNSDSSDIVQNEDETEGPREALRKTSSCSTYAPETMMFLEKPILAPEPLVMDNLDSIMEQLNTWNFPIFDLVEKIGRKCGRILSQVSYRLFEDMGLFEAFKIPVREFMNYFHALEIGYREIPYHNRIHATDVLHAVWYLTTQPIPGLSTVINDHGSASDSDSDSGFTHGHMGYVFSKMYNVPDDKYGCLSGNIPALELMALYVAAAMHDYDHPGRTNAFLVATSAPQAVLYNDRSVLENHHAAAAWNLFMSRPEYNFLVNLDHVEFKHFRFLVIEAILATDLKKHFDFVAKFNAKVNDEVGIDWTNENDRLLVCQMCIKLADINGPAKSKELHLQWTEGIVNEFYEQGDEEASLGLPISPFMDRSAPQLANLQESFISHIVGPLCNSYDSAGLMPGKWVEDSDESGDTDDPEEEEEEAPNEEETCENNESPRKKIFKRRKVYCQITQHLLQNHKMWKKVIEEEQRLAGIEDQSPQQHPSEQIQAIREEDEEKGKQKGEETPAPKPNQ
Method: (§1) A 3 g segment of bovine aortic media cut into pieces with scissors was homogenized with an ultra-turrax then a potter glass/glass homogenizer in 7 volumes by weight of buffer A containing a protease inhibitor cocktail (20 mM Tris-HCl, 0.25 M saccharose, 2 mM magnesium acetate, 1 mM dithiothreitol, 5 mM EGTA, 2000 U/ml aprotinin, 10 mg/l leupeptin and 10 mg/l soya trypsic inhibitor). The homogenizate was centrifuged at 105,000 g for 1 hour. The supernatant was loaded on a DEAE-Sephacel column (15×1.6 cm) pre-equilibrated with buffer B (buffer A without the saccharose, EGTA and protease inhibitors). The column was washed until there was no detectable absorption at 280 nm, then eluted with a linear gradient of NaCl (0–0.5 M) in buffer B. 3-ml fractions were collected and enzyme activity was determined under the conditions described hereinafter to localize the different enzymes PDE1, PDE3, PDE4 and PDE5, which were aliquoted and frozen at −80° C. (Lugnier et al., Biochem. Phamacol., 35 (1986) 1746–1751). PDE2 was prepared from bovine endothelial cells by the same methods (Lugnier and Schini, Biochem. Pharmacol. 1990, 39; 75–84).
(§2) Cyclic nucleotide phosphodiesterase activity was determined by a radioenzymatic method using tritium-labelled cyclic GMP or AMP (1 μM) as substrate (Lugnier et al., 1986). ^3H-labelled adenosine or guanosine monophosphate formed by hydrolysis of the radiolabelled cyclic nucleotide was then converted to ^3H-labelled adenosine or guanosine in a second reaction with […] in excess. The nucleoside formed was separated from the nucleotides by anion exchange chromatography. Nucleoside radioactivity was determined by liquid scintillation counting. Enzymatic incubations were carried out under conditions allowing no more than 15% hydrolysis of the substrate; each point was performed in duplicate.
(§3) The activity of the compounds was evaluated on other phosphodiesterase isoforms, particularly basal state or calmodulin-activated PDE1 from vascular smooth muscle, basal state or cyclic GMP-activated PDE2 from vascular endothelial cells, PDE3 and PDE5 from vascular smooth muscle.
(§4) The results obtained are presented in Table 4 hereinafter and are expressed as the percentage inhibition of enzymatic activity produced by […] of the tested compound.

PDE5 = target: T2, PDE5 (Bos taurus, UniProt Q28156); assay: Selectivity: inhibition of PDE5, radioenzymatic phosphodiesterase assay; assay type: biochemical, bovine; details: Table 4 Selectivity
T2 construct: localize the different enzymes PDE1, PDE3, PDE4 and PDE5, which were aliquoted and frozen; from tissue; host or cells: bovine aortic media (vascular smooth muscle), DEAE-Sephacel fraction
Method: as §1, §2, §3, §4

PDE1 = assay: Selectivity: inhibition of PDE1, radioenzymatic phosphodiesterase assay; assay type: biochemical, bovine; design: PDE1 percentage inhibition at 10 μM: unit: %; details: Table 4 Selectivity; for PDE1 percentage inhibition at 10 μM: compound at 10 μM
Method: as §1, §2, §3, §4

PDE4 = assay: Inhibition of PDE4, radioenzymatic phosphodiesterase assay; assay type: biochemical, bovine
Summary of the method: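 PDE4 partially purified from bovine aortic media by 105,000 g centrifugation and anion-exchange chromatography with an NaCl gradient. Activity measured radioenzymatically: product nucleoside separated from nucleotides by anion exchange and counted by liquid scintillation.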

PDE2 = target: T3, PDE2 (Bos taurus, UniProt P14099); assay: Selectivity: inhibition of PDE2, radioenzymatic phosphodiesterase assay; assay type: biochemical, bovine; details: Table 4 Selectivity; for inhibition at 10 µM: compound at 10 μM, read-out: PDE2 percentage inhibition at 10 μM
T3 construct: PDE2 was prepared from bovine endothelial cells by the same methods; endogenous in cells; host or cells: bovine vascular endothelial cells, DEAE-Sephacel fraction
T3 sequence (P14099 1-921): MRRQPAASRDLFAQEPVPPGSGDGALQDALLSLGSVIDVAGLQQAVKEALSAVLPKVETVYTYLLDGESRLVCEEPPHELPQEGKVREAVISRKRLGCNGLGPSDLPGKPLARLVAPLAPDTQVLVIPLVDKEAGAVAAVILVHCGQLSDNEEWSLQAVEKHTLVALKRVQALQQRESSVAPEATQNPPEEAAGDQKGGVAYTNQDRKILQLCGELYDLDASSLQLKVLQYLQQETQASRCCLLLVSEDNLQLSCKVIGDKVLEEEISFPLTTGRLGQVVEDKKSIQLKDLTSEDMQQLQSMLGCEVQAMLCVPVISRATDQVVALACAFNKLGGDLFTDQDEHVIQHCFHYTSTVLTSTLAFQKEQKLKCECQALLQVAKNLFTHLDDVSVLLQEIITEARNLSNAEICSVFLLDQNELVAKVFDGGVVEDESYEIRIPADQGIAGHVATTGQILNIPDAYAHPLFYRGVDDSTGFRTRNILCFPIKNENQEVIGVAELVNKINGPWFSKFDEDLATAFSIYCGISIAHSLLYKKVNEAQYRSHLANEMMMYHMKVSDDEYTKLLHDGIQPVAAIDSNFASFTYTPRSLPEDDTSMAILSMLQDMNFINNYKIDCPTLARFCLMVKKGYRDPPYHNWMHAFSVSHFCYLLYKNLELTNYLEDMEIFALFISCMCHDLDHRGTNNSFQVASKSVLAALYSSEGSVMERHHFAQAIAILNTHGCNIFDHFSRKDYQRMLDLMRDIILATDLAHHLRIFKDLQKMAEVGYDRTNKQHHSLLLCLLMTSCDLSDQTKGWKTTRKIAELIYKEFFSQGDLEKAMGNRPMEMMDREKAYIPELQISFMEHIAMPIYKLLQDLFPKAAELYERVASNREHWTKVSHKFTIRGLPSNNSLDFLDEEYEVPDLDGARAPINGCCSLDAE
Method: as §1, §2, §3, §4

TNFα = TNFα production by LPS-activated mononuclear cells from venous blood (ELISA); assay type: cell-based; details: Homo sapiens
Method: Compounds according to the invention were assessed for anti-inflammatory properties on mononuclear cells from venous blood of healthy donors (n=4), by a protocol approved by the Alsace No. 1 Ethics Committee. More specifically, the cells were incubated for 24 hours in 24-well plates in the presence of the test compound, after activation by Salmonella Abortis Equi lipopolysaccharide (LPS) (5 pg/ml) (cf. De Groote et al., Cytokine 4, 1992, 239). After incubation, TNFα concentrations were determined in the culture supernatant by an ELISA method (Antibody Solutions, Half Moon Bay, Calif., USA).

IL1β, IL6 and IL8 = IL1β, IL6 and IL8 secretion by LPS-activated mononuclear cells from venous blood; assay type: cell-based, human; details: compound at 1 μM
[1] = Table 1, formula (III), 1 μM cyclic AMP
[2] = Table 2, formula (XXII), 1 μM cyclic AMP
[3] = Table 3, formula (II), 1 μM cyclic AMP

Structure (SMILES)	inhibition at 10 µM (PDE3) [%]	IC50 (PDE5) [nM]	PDE1 percentage inhibition at 10 μM (PDE1) [%]	IC50 (PDE4; [1]) [nM]	IC50 (PDE4; Table 4 Selectivity) [nM]	IC50 (PDE2) [nM]	inhibition at 10 µM (PDE5; compound at 10 μM, read-out: PDE5 percentage inhibition at 10 μM) [%]	IC50 (PDE4; [2]) [nM]	inhibition at 10 µM (PDE2) [%]	IC50 (PDE1) [nM]	inhibition at 1 µM (TNFα; compound at 1 μM, 24 hours, LPS 5 pg/ml, read-out: inhibition of TNFα production) [%]	IL1β, IL6 and IL8 secretion levels (IL1β, IL6 and IL8)	IC50 (PDE4; [3])	IC50 (TNFα; read-out: anti-TNFα activity IC50) [nM]
COc1cc2c(cc1OC)C(c1ccc(-c3ccco3)cc1)=NN(C)C(=O)C2 [IIIav, 1-[4-(2-furyl)phenyl]-7,8-dimethoxy-3-methyl-3,5-dihydro-4H-2,3-benzodiazepin-4-one]	92	40000	49	900	900	19000								
CCOc1cc2c(cc1OC)C(c1ccccc1)=NCC(=O)N2 [XXIIam, 8-ethoxy-7-methoxy-5-phenyl-1,3-dihydro-2H-1,4-benzodiazepin-2-one]	36		29		700		35	700	36					
COc1cc2c(cc1OC)C(c1cc3ccccc3s1)=NN(C)C(=O)C2 [IIIab, 1-(2-benzo[b]thienyl)-7,8-dimethoxy-3-methyl-3,5-dihydro-4H-2,3-benzodiazepin-4-one]		4300		300	300	16000				3810	100	not at all altered		
CCOc1cc2c(cc1OCC)N(CC)C(=O)CN=C2c1ccccc1 [IIbg, 7,8-diethoxy-1-ethyl-5-phenyl-1,3-dihydro-2H-1,4-benzodiazepin-2-one]	40		47		900				20				900 nM and 1600 nM	
CCOc1cc2c(cc1OCC)C(c1ccccc1)=NC(C)C(=O)N2 (stereo not drawn) [XXIIai, 7,8-diethoxy-3-methyl-5-phenyl-1,3-dihydro-2H-1,4-benzodiazepin-2-one]	55		55		1700			1700	6					
CCOc1cc2c(cc1OCC)C(CC)C(=O)N(C)N=C2c1cc2ccccc2s1 (stereo not drawn) [IIIbb, 1-(2-benzo[b]thienyl)-7,8-diethoxy-5-ethyl-3-methyl-3,5-dihydro-4H-2,3-benzodiazepin-4-one]		5700		87	87				25	14000				
CCOc1cc2c(cc1OC)C(c1ccccc1)=NC(Cc1cccc(C(N)=O)c1)C(=O)N2C (stereo not drawn) [IIdh, 3-[(8-ethoxy-7-methoxy-1-methyl-2-oxo-5-phenyl-2,3-dihydro-1H-1,4-benzodiazepin-3-yl)methyl]benzamide]													520 nM	100 to 1000
